The values below come from patent US6630128B1, “Porphyrin derivatives their use in photodynamic therapy and medical devices containing them” (Destiny Pharma Limited, priority 1999, dated 2003).

A short description of data set [1]: Singlet oxygen quantum yields (singlet oxygen phosphorescence at 1270 nm). It is filed as physicochemical. As to conditions: for ΦΔ (singlet oxygen quantum yield): aerated toluene, excitation 355 nm, 20-23° C., relative to TPP ΦΔ=0.58; for quantum yield of singlet oxygen production, ΦΔ (cross-calibration of reference materials): cross-calibrated against TPP ΦΔ=0.58, present work. The procedure: The singlet oxygen quantum yields were determined by the direct measurement of singlet oxygen phosphorescence at 1270 nm. Samples were excited using the third harmonic of a Q-switched Nd:YAG (neodymium: yttrium-aluminium-garnet) Spectra Physics GCR-150-10 laser, operating at an excitation wavelength of 355 nm. A small fraction of the laser output was passed through a solution state filter containing aqueous cobalt (II) sulphate (CoSO4) to remove residual 532 and 1064 nm radiation and then down a 8 mm diameter liquid light guide (Oriel). For the measurements the end of the light guide was held against a 1 cm×1 cm fluorescence cuvette (Hellma) holding the sample. During the course of the experiments the incident laser energy for each measurement was determined using a pyroelectric detector held behind the sample. This detector was calibrated at the start of the experiment using a second calibrated energy meter (Gentec ED100). The laser energy was adjusted by placing cells containing aqueous sodium nitrite between the CoSO4 filter and the light guide. Typical pulse energies used were in the range of 25-500 μJ per pulse. Shot to shot noise was estimated to be <10% and sets of 20 shots gave an average value within <3%.
Phosphorescence from the sample was collected and passed through an interference filter centred at 1270 nm available from (Infra Red Engineering Ltd) and then focused onto the active area of a liquid nitrogen cooled germanium photodiode (North Coast EO-817P). The output from this device was AC coupled to a digital oscilloscope (Tektronix TDS-320) which digitised and averaged the transients. Typically 20 laser shots were used for each sample. The averaged data was transferred to a PC where it was stored and analysed.
A stock solution of each of the title compounds of Examples 67 to 81 was prepared by dissolving a small sample of the respective title compound in approximately 5 ml of toluene (Fisher Scientific, Analytical grade). The exact concentrations of the stock solution was not determined.
A working solution of each of the title compounds of Examples 67 to 81 was prepared by diluting the respective stock solution with toluene to give an absorbance of 0.100±0.005 at 355 nm when placed in a ultraviolet/visible spectrometer (ATI-Unicam UV-2) compared to a reference cell containing the pure toluene solvent. The ultraviolet/visible spectrum of each sample was also recorded over the range 300-700 nm.
All of the data were recorded at ambient temperature, 20-23° C., and the solutions were aerated. The singlet oxygen emission decay was recorded for each sample using 5 laser energies and the data for each measurement were fitted to an exponential decay of the form I(t)=A.exp(−t/τ), where I(t) is the measured intensity of singlet oxygen phosphorescence at time t, A is the intensity extrapolated back to t=0 (ie when the laser fires), and τ is the lifetime of singlet oxygen. A typical decay for the title compound of Example 78 in toluene excited at 355 nm using a pulse energy of 365 μJ, where A=19.6 and τ=27.8 μs, is shown in FIG. 2.
A plot of A versus the incident laser energy was drawn for each sample and the slope determined. The slope of such a graph is proportional to the singlet oxygen quantum yield. An example of a plot showing the linear relationship between the singlet oxygen emission intensity and the laser energy for the title compound of Example 78 and meso-tetraphenylporphyrin (TPP) is shown in FIG. 3.
The experiments were carried out using batches of 5 samples of the working solution of each of the title compounds of 67 to 81 plus one reference sample meso-tetraphenylporphyrin (TPP). Each run was repeated at least once. The data sets obtained for each sample were within ±5% of the mean value.
The dominant sources of error in the experiment include the shot-to-shot fluctuations in the laser and the difference in absorbances of the samples at the excitation wavelength. The values have an error of ±10%. […]

A short description of data set [2]: Fluorescence quantum yields (corrected emission spectra, relative to TPP). Format: physicochemical. As to conditions: excitation wavelength 355 nm, emission 550-800 nm. The procedure: Mass spectra were recorded on a Finnigan MAT TSQ 700 triple quadrupole mass spectrometer equipped with an […]. The matrix-assisted laser desorption/ionization mass spectra of the porphyrins were obtained using a dithranol matrix. FAB-MS spectra were obtained using a 3-nitrobenzyl alcohol (NOBA) matrix. ^1H-NMR spectra were measured at 60 MHz on a Jeol JNM-PMX60 spectrometer, at 270 MHz on a Jeol EX 270 spectrometer and at 300 MHx on a Varian Gemini-300 spectrometer in CDCl3 using TMS as an internal reference. Ultraviolet/visible spectra of solutions of compounds in tetrahydrofuran (THF) or toluene were measured using a Hitachi U-3000 spectrophotometer or a ATI-Unicam UV-2 spectrophotometer. Reflectance-absorbance infra red (RAIR) spectra were recorded on a BIO-RAD FTS 165 spectrophotometer. Fluorescence emission spectra were recorded using a Spex Fluorolog 3 spectrophotometer at an excitation wavelength of 355 nm, emission at 550 to 800 nm, with a bandpass of 2 nm.
The emission spectra were recorded using a Spex Fluorolog 3, excitation wavelength=355 nm, emission 550-800 nm, with a bandpass of 2 nm. A spectrum was recorded for each of the title compounds of Examples 67 to 81.
The fluorescence quantum yield for each of the title compounds of Examples 67 to 81 was determined by measuring the integral of the corrected emission spectra for each compound and calculated relative to TPP=0.11 (Handbook of Photochemistry Ed 2, Murov, Carmichael and Hug, Dekker 1993). The fluorescence quantum yield for each of the title compounds of Examples 67 to 81 are listed in Table 1; values for Zn TPP and Mg TPP are included in Table 1 for reference but they were not measured in this work.

For data set [3] the following is noted: reference values from Handbook of Photochemistry Ed 2; not measured in this work; cited from earlier work.
The conditions of data set [4]: literature values (Rossbroich et al. 1985; Wilkinson et al. 1993); cited from earlier work.

Where two headings read alike, the source gives them in different places.

In the case of `C=CCCOCCCCCCOc1ccc(-c2c3nc(c(-c4cc(OCCCCCCCCCC)c(OCCCCCCCCCC)c(OCCCCCCCCCC)c4)c4ccc([n-]4)c(-c4cc(OCCCCCCCCCC)c(OCCCCCCCCCC)c(OCCCCCCCCCC)c4)c4nc(c(-c5cc(OCCCCCCCCCC)c(OCCCCCCCCCC)c(OCCCCCCCCCC)c5)c5ccc2[n-]5)C=C4)C=C3)cc1.[Mg+2]` [Example 77, 5-[4-(6-but-3-Enyloxy-hexyloxy)-phenyl]-10,15,20-tris-(3,4,5-tridecyloxy-phenyl)-porphyrinato Magnesium], in data set [1], the “ΦΔ (singlet oxygen quantum yield)” value was determined as 0.51 ± 0.05. The “Quantum yield of fluorescence, relative to TPP = 0.11” value in data set [2] is on record as 0.14.

Regarding `C=CCCOCCCCCCCCCCCCOc1ccc(-c2c3nc(c(-c4cc(OCCCCCC)cc(OCCCCCC)c4)c4ccc([n-]4)c(-c4cc(OCCCCCC)cc(OCCCCCC)c4)c4nc(c(-c5cc(OCCCCCC)cc(OCCCCCC)c5)c5ccc2[n-]5)C=C4)C=C3)cc1.[Zn+2]` [Example 78, 5-[4-(12-but-3-Enyloxy-dodecyloxy)-phenyl]-10,15,20-tris-(3,5-dihexyloxy-phenyl)-porphyrinato Zinc], the “ΦΔ (singlet oxygen quantum yield)” value in data set [1] is reported as 0.78 ± 0.08. Moreover, in data set [1] (toluene, excited at 355 nm, pulse energy 365 μJ (FIG. 2)), the “τ, lifetime of singlet oxygen” value came out at 27.8 μs. Moreover, the “Quantum yield of fluorescence, relative to TPP = 0.11” value in data set [2] was determined as 0.04.

In the case of `C1=Cc2nc1c(-c1ccccc1)c1ccc([n-]1)c(-c1ccccc1)c1nc(c(-c3ccccc3)c3ccc([n-]3)c2-c2ccccc2)C=C1.[Mg+2]` [Mg TPP, magnesium tetraphenylporphyrin], in data set [3], the “Quantum yield of fluorescence, relative to TPP = 0.11” value was 0.15.

With `C1=Cc2nc1c(-c1ccccc1)c1ccc([nH]1)c(-c1ccccc1)c1nc(c(-c3ccccc3)c3ccc([nH]3)c2-c2ccccc2)C=C1` [TPP, meso-tetraphenylporphyrin], the “quantum yield of singlet oxygen production, ΦΔ, literature value” (“quantum yield … ΦΔ, literature value” below) in data set [4] was 0.58. Moreover, the “Quantum yield of fluorescence, relative to TPP = 0.11” value in data set [3] was 0.11.

Consider `C1=Cc2nc1c(-c1ccccc1)c1ccc([n-]1)c(-c1ccccc1)c1nc(c(-c3ccccc3)c3ccc([n-]3)c2-c2ccccc2)C=C1.[Zn+2]` [Zn TPP, zinc tetraphenylporphyrin], for which, in data set [1], the “quantum yield of singlet oxygen production, ΦΔ (cross-calibration of reference materials)” value amounted to 0.77±0.07. The “quantum yield … ΦΔ, literature value” in data set [4] is recorded as 0.73. Further, in data set [3], the “Quantum yield of fluorescence, relative to TPP = 0.11” value is reported as 0.04.

For the compound `[Zn+2].c1ccc2c(c1)-c1nc-2nc2[n-]c(nc3nc([n-]c4nc(n1)-c1ccccc1-4)-c1ccccc1-3)c1ccccc21` [zinc phthalocyanine, reference compound], in data set [1], the “quantum yield of singlet oxygen production, ΦΔ (cross-calibration of reference materials)” value is 0.46±0.05. Besides, the “quantum yield … ΦΔ, literature value” in data set [4] is listed as 0.50.
